Assay results published in patent US12447153B2, “HER2 mutation inhibitors” (Array BioPharma Inc., priority 2021, dated 2025).

Key:
[1] = target: ErbB2 WT (Homo sapiens (Human), UniProt P04626); experiment: ErbB Enzyme Assay (HTRF KinEASE-TK), Assay 2; type: biochemical
[2] = target: EGFR (Homo sapiens (Human), UniProt P00533); experiment: ErbB Enzyme Assay (HTRF KinEASE-TK), Assay 3; type: biochemical
[3] = target: ErbB2 with Exon 20 YVMA insertion (HER2-YVMA) (Homo sapiens (Human), UniProt P04626, INS775YVMA); experiment: Cellular Phosphorylation Assay, Assay 4 (constitutive ErbB2 phosphorylation, NIH 3T3 cells); type: cell-based
ErbB2 with Exon 20 YVMA insertion (HER2-YVMA), sequence (P04626 other isoform, or with tags, fused parts or gaps ins YVMA behind 775): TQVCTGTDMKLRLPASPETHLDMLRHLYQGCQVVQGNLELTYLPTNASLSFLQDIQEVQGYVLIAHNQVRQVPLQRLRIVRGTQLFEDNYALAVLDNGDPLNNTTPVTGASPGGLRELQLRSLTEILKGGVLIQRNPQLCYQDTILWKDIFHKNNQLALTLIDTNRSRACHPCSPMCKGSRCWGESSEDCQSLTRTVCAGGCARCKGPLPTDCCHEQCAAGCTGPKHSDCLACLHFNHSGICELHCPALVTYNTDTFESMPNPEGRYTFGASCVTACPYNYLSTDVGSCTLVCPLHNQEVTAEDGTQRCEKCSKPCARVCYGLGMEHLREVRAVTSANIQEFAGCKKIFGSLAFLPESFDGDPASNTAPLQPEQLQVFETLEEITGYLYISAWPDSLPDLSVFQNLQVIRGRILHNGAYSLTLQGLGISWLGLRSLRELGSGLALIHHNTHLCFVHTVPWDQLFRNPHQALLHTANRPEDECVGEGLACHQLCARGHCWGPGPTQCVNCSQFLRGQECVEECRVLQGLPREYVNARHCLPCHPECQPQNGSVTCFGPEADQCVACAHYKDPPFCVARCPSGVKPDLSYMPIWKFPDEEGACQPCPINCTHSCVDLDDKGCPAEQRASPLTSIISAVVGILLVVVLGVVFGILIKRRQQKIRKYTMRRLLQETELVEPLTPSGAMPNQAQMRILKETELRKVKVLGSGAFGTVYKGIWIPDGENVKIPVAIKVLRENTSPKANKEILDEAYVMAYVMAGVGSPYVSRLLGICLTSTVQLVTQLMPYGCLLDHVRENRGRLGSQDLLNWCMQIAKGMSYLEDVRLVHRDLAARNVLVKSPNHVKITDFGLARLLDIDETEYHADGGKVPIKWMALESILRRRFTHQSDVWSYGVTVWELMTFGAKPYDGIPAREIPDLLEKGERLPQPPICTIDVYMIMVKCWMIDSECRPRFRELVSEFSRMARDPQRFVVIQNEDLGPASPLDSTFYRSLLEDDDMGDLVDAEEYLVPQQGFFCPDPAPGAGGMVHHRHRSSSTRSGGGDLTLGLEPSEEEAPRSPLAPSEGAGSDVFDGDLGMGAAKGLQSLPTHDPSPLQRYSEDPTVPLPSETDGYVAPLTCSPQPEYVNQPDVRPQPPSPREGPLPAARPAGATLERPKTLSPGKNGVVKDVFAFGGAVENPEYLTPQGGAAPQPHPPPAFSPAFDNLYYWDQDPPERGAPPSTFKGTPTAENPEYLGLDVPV

[4] = target: EGFR wild type (EGFR WT) (Homo sapiens (Human), UniProt P00533); experiment: Cellular Phosphorylation Assay, Assay 5 (EGF-stimulated EGFR phosphorylation, NIH 3T3 cells); type: cell-based
EGFR wild type (EGFR WT), sequence (P00533 25-1210): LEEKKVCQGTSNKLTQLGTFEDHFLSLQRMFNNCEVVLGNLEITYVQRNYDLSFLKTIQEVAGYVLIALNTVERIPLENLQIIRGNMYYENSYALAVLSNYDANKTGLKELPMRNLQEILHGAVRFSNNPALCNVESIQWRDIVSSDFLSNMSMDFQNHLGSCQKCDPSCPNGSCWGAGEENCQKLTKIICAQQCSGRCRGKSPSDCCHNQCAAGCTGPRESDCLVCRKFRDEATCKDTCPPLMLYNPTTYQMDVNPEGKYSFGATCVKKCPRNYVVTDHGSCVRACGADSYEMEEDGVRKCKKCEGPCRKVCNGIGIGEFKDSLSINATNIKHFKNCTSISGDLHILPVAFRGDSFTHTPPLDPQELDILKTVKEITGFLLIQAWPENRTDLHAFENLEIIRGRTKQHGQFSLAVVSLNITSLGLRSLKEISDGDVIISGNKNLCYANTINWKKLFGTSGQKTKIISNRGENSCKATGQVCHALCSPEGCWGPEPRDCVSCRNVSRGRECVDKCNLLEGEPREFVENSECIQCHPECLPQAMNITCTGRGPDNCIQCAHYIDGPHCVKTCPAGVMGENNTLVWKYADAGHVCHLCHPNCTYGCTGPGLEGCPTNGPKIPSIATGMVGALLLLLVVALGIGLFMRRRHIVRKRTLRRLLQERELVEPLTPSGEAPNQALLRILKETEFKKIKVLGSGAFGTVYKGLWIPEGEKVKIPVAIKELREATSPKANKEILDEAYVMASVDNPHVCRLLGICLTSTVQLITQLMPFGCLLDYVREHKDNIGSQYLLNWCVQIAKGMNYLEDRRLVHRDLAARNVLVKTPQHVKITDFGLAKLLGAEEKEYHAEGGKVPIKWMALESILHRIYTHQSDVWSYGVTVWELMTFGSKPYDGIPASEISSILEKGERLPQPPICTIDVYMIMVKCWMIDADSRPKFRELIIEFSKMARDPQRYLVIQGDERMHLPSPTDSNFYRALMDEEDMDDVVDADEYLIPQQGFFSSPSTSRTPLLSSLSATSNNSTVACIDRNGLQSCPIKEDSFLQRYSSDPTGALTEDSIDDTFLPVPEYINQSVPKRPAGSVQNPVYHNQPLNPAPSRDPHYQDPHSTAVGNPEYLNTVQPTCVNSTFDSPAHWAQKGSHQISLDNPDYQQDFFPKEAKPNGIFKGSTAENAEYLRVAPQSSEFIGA

[5] = EGF-stimulated EGFR WT phosphorylation
[6] = cellular ErbB2 YVMA phosphorylation
[7] = cellular EGFR WT phosphorylation, EGF-stimulated

ErbB2 WT, sequence (P04626 23-1255): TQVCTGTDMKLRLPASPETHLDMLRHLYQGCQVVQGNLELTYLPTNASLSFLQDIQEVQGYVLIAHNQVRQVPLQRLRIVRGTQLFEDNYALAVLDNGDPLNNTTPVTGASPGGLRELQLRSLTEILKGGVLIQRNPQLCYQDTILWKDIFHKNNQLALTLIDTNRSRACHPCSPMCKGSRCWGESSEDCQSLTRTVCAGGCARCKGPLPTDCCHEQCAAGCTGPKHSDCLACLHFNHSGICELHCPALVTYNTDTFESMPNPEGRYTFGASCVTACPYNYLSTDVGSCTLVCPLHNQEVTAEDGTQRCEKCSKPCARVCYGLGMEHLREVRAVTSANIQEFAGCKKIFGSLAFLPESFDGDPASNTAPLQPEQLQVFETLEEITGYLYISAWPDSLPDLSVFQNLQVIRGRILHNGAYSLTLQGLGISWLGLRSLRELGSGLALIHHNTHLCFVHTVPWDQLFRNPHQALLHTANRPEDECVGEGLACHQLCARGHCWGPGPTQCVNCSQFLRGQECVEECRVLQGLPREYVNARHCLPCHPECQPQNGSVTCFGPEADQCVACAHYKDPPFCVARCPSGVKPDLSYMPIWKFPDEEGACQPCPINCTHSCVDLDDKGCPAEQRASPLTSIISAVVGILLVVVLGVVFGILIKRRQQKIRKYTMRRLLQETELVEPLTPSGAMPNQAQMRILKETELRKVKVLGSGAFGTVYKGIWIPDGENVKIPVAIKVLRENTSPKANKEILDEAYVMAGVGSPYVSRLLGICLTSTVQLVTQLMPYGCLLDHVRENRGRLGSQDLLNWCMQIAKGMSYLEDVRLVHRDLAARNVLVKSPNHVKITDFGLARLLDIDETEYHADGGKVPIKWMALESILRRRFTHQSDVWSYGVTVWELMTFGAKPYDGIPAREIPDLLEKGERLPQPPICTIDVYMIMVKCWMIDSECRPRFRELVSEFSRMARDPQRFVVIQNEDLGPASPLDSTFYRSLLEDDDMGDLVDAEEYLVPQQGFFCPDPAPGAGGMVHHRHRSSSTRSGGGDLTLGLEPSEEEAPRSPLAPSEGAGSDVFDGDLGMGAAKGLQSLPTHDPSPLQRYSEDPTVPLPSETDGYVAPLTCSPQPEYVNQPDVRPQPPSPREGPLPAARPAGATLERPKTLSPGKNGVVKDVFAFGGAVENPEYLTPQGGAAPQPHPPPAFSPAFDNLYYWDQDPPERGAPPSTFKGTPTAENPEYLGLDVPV
EGFR, sequence (P00533 25-1210): as the sequence (P00533 25-1210) above

Row | Compound | IC50 ([1]; ErbB2 WT enzyme) [nM] | IC50 ([2]; EGFR enzyme) [nM] | IC50 ([3]; ErbB2 YVMA phosphorylation) [nM] | IC50 [4, 5] [nM] | IC50 ([1]; ErbB2 WT enzyme assay) [nM] | IC50 ([2]; EGFR enzyme assay) [nM] | IC50 [3, 6] [nM] | IC50 [4, 7] [nM]
1 | C=CC(=O)N1CCC2CN(c3nc4c(Nc5ccc(Oc6ccn7ncnc7c6)c(Cl)c5F)ncnc4cc3OC)CC21 (stereo not drawn) [Example 38, 1-(5-(4-((4-([1,2,4]triazolo[1,5-a]pyridin-7-yloxy)-3-chloro-2-fluorophenyl)amino)-7-methoxypyrido[3,2-d]pyrimidin-6-yl)hexahydropyrrolo[3,4-b]pyrrol-1(2H)-yl)prop-2-en-1-one] | 8.5 | 153 | 22.6 | 382 |  |  |  | 
2 | C=CC(=O)N1CCN(c2ccc3ncnc(Nc4ccc(Oc5ccn6ncnc6c5)c(Cl)c4F)c3n2)C[C@H]1C(F)(F)F [Example 85, (S)-1-(4-(4-((4-([1,2,4]triazolo[1,5-a]pyridin-7-yloxy)-3-chloro-2-fluorophenyl)amino)pyrido[3,2-d]pyrimidin-6-yl)-2-(trifluoromethyl)piperazin-1-yl)prop-2-en-1-one] | 3.1 | 205 | 25 | 446 |  |  |  | 
3 | C=CC(=O)N1C[C@@H](c2ccc3ncnc(Nc4cc(C)c(Oc5ccn6ncnc6c5)cc4F)c3n2)C[C@@H]1C (mixture of isomers) [Example 384] |  |  |  |  | 101 | 3000 | 58.3 | ≥ 5000
4 | C=CC(=O)N1C2CCC1CN(c1ccc3ncnc(Nc4ccc(Oc5ccc6c(c5)ncn6C)c(C)c4F)c3n1)C2 [Example 431] |  |  |  |  | 44.9 | 712 | 13.1 | 393
5 | C=CC(=O)N1CCN(c2ccc3ncnc(Nc4ccc(Oc5ccn6ncnc6c5)c(Cl)c4F)c3n2)C[C@H]1C [Example 91, (R)-1-(4-(4-((4-([1,2,4]triazolo[1,5-a]pyridin-7-yloxy)-3-chloro-2-fluorophenyl)amino)pyrido[3,2-d]pyrimidin-6-yl)-2-methylpiperazin-1-yl)prop-2-en-1-one] | 9.8 | 358 | 2.8 | 56.8 |  |  |  | 
6 | C=CC(=O)N1CC[C@H]2C[C@@H]1CN2c1ccc2ncnc(Nc3ccc(Oc4ccn5ncnc5c4)c(Cl)c3F)c2n1 [Example 436] |  |  |  |  | 36.3 | 1920 | 459 | ≥ 5000
7 | C=CC(=O)N1CCN(c2ccc3ncnc(Nc4ccc(Oc5ccn6ncnc6c5)c(Cl)c4F)c3n2)CC1C(F)F (stereo not drawn) [Example 366] |  |  |  |  | 7.3 | 68.3 | 5.3 | 35.6

The next lines start with the values.

Row | IC50 ([1]; ErbB2 WT enzyme) [nM] | IC50 ([2]; EGFR enzyme) [nM] | IC50 ([3]; ErbB2 YVMA phosphorylation) [nM] | IC50 [4, 5] [nM] | IC50 ([1]; ErbB2 WT enzyme assay) [nM] | IC50 ([2]; EGFR enzyme assay) [nM] | IC50 [3, 6] [nM] | IC50 [4, 7] [nM] | Compound
8 |  |  |  |  | 54 | 4560 | 66.3 | ≥ 5000 | C=CC(=O)N1C[C@@H]2C[C@H]1CC[C@@H]2c1ccc2ncnc(Nc3cc(C)c(Oc4ccc5c(c4)ncn5C)cc3F)c2n1 [Example 378]
9 |  |  |  |  | 29.2 | 4210 | 36.5 | ≥ 5000 | C=CC(=O)N1C[C@@H]2C[C@H]1CC[C@@H]2c1ccc2ncnc(Nc3ccc(Oc4ccc5c(c4)ncn5C)c(C)c3F)c2n1 [Example 379]
10 | 36.5 | 311 | 5.8 | 118 |  |  |  |  | C=CC(=O)N1CC[C@@H]2C[C@H]1CN2c1ccc2ncnc(Nc3ccc(Oc4ccc5c(c4)ncn5C)c(C)c3F)c2n1 [Example 29, 1-((1 S,5R)-6-(4-((2-fluoro-3-methyl-4-((1-methyl-1H-benzo[d]imidazol-5-yl)oxy)phenyl)amino)pyrido[3,2-d]pyrimidin-6-yl)-2,6-diazabicyclo[3.2.1]octan-2-yl)prop-2-en-1-one]
11 | 5.2 | 720 | 13.9 | 1960 |  |  |  |  | C=CC(=O)N1CCCC[C@H](c2ccc3ncnc(Nc4ccc(Oc5ccc6c(c5)ncn6C)c(C)c4)c3n2)C1 (single isomer, unassigned) [Example 172]
12 | 121 | ≥ 10000 | 44.5 | ≥ 5000 |  |  |  |  | C=CC(=O)N1CCC[C@@H](c2ccc3ncnc(Nc4cc(C)c(Oc5ccc6c(c5)ncn6C)cc4F)c3n2)CC1 (racemic) [Example 135, rac-(R)-1-(4-(4-((2-fluoro-5-methyl-4-((1-methyl-1H-benzo[d]imidazol-5-yl)oxy)phenyl)amino)pyrido[3,2-d]pyrimidin-6-yl)azepan-1-yl)prop-2-en-1-one]
